Data set [1] addresses Free fatty acid receptor 1 (Homo sapiens, UniProt O14842). The data set is described as follows: Agonist activity at GPR40 (unknown origin).
Data set [2] is described as follows: Hypoglycemic activity in normoglycemic ICR mouse assessed as blood glucose level at 30 mg/kg, po administered 30 mins prior to glucose challenge and measured at 1 hr post-compound administration by OGTT. Format: ADME, organism-based. The following applies: in vivo.
The subject of the next data set is Mus musculus. The data set is described as follows: Glucose lowering activity in po dosed normoglycemic ICR mouse assessed as suppression of blood glucose level administered for 30 mins followed by glucose challenge and measured upto 120 mins by OGTT. Format: functional, organism-based.
Data set [3] can be described thus: Hypoglycemic activity in normoglycemic ICR mouse at 90 mg/kg, po administered for 30 mins followed by glucose challenge and measured upto 120 mins by OGTT. The note with it: in vivo. Format: ADME, organism-based.
The nature of data set [4]: Hepatotoxicity in HFD fed/STZ-treated diabetic C57BL/6 mouse model assessed as increase in ALT level in blood at 30 mg/kg, po administered for 4 weeks. Format: toxicity, organism-based. The note with it: in vivo, 672 h.
The nature of data set [5]: Hepatotoxicity in HFD fed/STZ-treated diabetic C57BL/6 mouse model assessed as increase in AST level in blood at 30 mg/kg, po administered for 4 weeks. The data set is classed as toxicity, organism-based. The following applies: in vivo, 672 h.
A short description of data set [6]: Clearance in Sprague-Dawley rat at 10 mg/kg, po by LC-MS/MS analysis. Format: ADME, organism-based. The note with it: in vivo.
The nature of data set [7]: Cmax in Sprague-Dawley rat at 10 mg/kg, po by LC-MS/MS analysis. More on the design: dose 10 mg/kg, route oral. The data set is classed as ADME, organism-based. The note with it: in vivo.
A short description of data set [8]: Tmax in Sprague-Dawley rat at 10 mg/kg, po by LC-MS/MS analysis. The data set is classed as ADME, organism-based. The note with it: in vivo.
Data set [9] can be described thus: AUC (0 to 24 hrs) in Sprague-Dawley rat at 10 mg/kg, po by LC-MS/MS analysis. Format: ADME, organism-based. More on the design: time < 24 hr, dose 10 mg/kg, route oral. The following applies: in vivo.
Data set [10] is described as follows: Half life in Sprague-Dawley rat at 10 mg/kg, po by LC-MS/MS analysis. Format: ADME, organism-based. The following applies: in vivo.

pEC50: −log10 of the molar value.

As usually defined, the pEC50 is the EC50 on a negative log10 scale, so that one unit is a factor of ten. Read a low pEC50 as a high EC50. What is called CL/F is clearance divided by bioavailability, as obtained after extravascular dosing. As usually defined, the Cmax is the peak of the concentration-time curve. What is called Tmax is the time at which the peak concentration occurs. By AUC(0-t) is commonly meant exposure summed from dosing to a finite time, without extrapolation to infinity. A higher AUC(0-t) goes with high exposure. As a reminder, the half-life is how long it takes for the measured level to halve. Low values mean rapid decline, high ones slow decline.

Sequence of Free fatty acid receptor 1 (O14842 whole entry): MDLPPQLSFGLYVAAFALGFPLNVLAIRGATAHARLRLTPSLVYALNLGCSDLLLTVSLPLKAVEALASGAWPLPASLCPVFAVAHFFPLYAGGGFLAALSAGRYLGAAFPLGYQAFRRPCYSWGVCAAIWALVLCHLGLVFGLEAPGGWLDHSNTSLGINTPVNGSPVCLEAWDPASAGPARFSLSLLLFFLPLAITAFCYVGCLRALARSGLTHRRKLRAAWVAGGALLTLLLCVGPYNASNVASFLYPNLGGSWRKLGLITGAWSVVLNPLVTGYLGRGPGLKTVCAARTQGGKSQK

In [1], `CC#CC(CC(=O)O)c1ccc(OCc2ccc3nc(-c4ccc(C)cc4C)cn3c2)cc1` (configuration not stated) gave a pEC50 of 6.50.

For the compound `CC#CC(CC(=O)O)c1ccc(OCc2ccn3cc(-c4ccccc4OCC)nc3c2)cc1` (configuration not stated), in data set [1], the pEC50 was 6.64. In addition, the Activity entry in data set [2] is on record as “Non-Toxic”.

`CC#CC(CC(=O)O)c1ccc(OCc2ccc3nc(-c4ccc(OC)cc4)cn3c2)cc1` (configuration not stated): the pEC50 in [1] was 7.33. In addition, the Activity result in data set [2] was “Non-Toxic”; in the data set on Mus musculus, “Dose-dependent effect”; in [3] it was “Non-Toxic”; in [4], “Non-Toxic”; in data set [5], “Non-Toxic”. In data set [6], this compound had a CL/F of 0.454 mL/min/kg. The same compound displayed a Cmax in data set [7] of 16300 ng/mL. Moreover, in data set [8], the Tmax was 8.26 h. The same compound yielded an AUC(0-t) at 24 h in [9] of 288 µg·h/mL. The same compound had a half-life in data set [10] of 5.93 h.

Take `Cc1cc(OCCCS(C)(=O)=O)cc(C)c1-c1cccc(COc2ccc3c(c2)OC[C@H]3CC(=O)O)c1`: the Activity result in data set [4] and in data set [5] was “Toxic” each time.

The compound `CC#CC(CC(=O)O)c1ccc(OCc2ccc3nc(-c4ccc(C)cc4)cn3c2)cc1` (configuration not stated) had a pEC50 in data set [1] of 6.29.

The values above are taken from ChEMBL document CHEMBL4622922, “Discovery of novel potent GPR40 agonists containing imidazo[1,2-a]pyridine core as antidiabetic agents” (Bioorg Med Chem, 2020).
